Reference: US12569502B2, “Use of bile acids and derivatives thereof in preparation of GPR39 agonist” (PEKING UNIVERSITY, priority 2019, dated 2026)
Like-named read-outs stand apart in the source and are kept apart here.

Assays:
Format in all cases: cell-based
[1] = molecular target: T1, GPR39 receptors on m39-20 cell lines (Mus musculus, UniProt Q5U431, T447P); assay: FLIPR calcium imaging on m39-20 cell lines stably expressing murine-derived GPR39; settings: for Bile acid + 4 μM zinc ions Efficacy / Only bile acid Efficacy: activation efficacy; for intracellular calcium signals in m39-20 cell lines: FIG. 1; for intracellular calcium signaling response in m39-20 cells: absence of zinc ions; for change of activation efficacy after the addition of zinc ions: Table 1, FIG. 2; for activation capacity on GPR39 receptors among the bile acids: dose curves
T1 construct: P2A-mCherry (C); expressed in transfected cells
T1 sequence (Q5U431 1-456 T447P): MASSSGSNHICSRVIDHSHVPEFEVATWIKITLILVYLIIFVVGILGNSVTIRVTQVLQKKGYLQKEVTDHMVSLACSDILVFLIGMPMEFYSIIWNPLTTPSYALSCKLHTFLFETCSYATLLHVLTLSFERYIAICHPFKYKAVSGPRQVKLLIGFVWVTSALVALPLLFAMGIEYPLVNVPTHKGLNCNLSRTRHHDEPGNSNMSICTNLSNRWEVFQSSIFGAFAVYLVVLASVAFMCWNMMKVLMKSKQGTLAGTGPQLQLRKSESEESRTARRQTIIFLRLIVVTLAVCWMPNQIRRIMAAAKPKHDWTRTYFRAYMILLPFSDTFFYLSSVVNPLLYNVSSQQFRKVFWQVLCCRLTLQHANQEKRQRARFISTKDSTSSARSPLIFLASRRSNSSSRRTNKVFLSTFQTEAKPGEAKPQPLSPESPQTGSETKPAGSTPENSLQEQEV
From the text: Intracellular calcium imaging is a routine technique to study cell functions, the basic principle of which is to detect the concentration of the calcium ion in tissues or cells using a calcium indicator, thereby reflecting certain reactions in the tissues or cells. In the present application, the intracellular calcium released from a cell line that stably or transiently expresses GPR39 is detected using Fluo8-AM, a calcium fluorescent indicator, so as to determine the activation of the GPR39 receptor by the bile acid and derivative thereof.
HEK293T cells (purchased from ATCC) were seeded in a 6-well plate (coming Co.) at an appropriate density (about 0.5-2×10^5/well). When the cell density reached above 30%, the plasmid PLVXK-mGPR39-P2A-mCherry was transfected with Lipofectamine 3000 (Invitrogen) at a concentration of 2 μg per well. The cells were passaged 24 hours after transfection, the puromycin (gibco) was added into the medium at a concentration of 2 μg/mL for antibiotic screening of cells. After 2-4 days of continuous screening, the cells screened for puromycin resistance were trypsinized and screened by flow cytometry for monoclones with red fluorescence. And these monoclones were seeded in a 96-well plate and cultured in a medium without puromycin for around 10 days. Cell colonies with red fluorescence were sorted under a fluorescence microscope, trypsinized and then passaged and expanded in a 6-well plate. Cell lines m39-20 stably expressing murine-derived GPR39 were obtained through the above methods.
Calcium dye Fluo8-AM (ATT bioquest Co.) was dissolved in DMSO solvent to formulate a stock solution of 1 μg/μL. […] After then, the calcium dye working solution was replaced with the 4K solution (50 μL per well), and acclimated for 5 min at room temperature for the subsequent calcium imaging experiment.
Bile acids and derivatives thereof as listed in Table 1 below were dissolved in dimethyl sulfoxide (DMSO, Sigma Co.) solvent to formulate a stock solution of 50 mM, which was stored at −20° C. During calcium imaging with FLIPR, the drug was diluted with the above 4K solution into a working concentration of 400 μM, and packaged into another 96-well plate. […] The instrument parameters were set so that 50 μL of the drug solution may be added into the culture wells within 2 s. The fluorescence recording result within the first 30 seconds was used as the baseline value. The FLIPR robot arm was programmed to automatically add bile acids and derivatives thereof into the cell sample culture wells at the 31st second. 1% of DMSO solvent was used as the blank control.
After that, the calcium dye working solution was replaced with a 4K solution containing 4 μM zinc ions (50 μL per well), followed by acclimation for 5 min at room temperature.

HEK293T cells = assay: FLIPR calcium imaging on HEK293T cells not expressing GPR39; settings: 293T cells not expressing GPR39
Experimental: Bile acids and derivatives thereof as listed in Table 1 below were dissolved in dimethyl sulfoxide (DMSO, Sigma Co.) solvent to formulate a stock solution of 50 mM, which was stored at −20° C. During calcium imaging with FLIPR, the drug was diluted with the above 4K solution into a working concentration of 400 μM, and packaged into another 96-well plate. The drug solution and the cell samples in Example 2.2 were placed into the designated position of the FLIPR instrument (MolecularDevices Co.) respectively. The instrument parameters were set so that 50 μL of the drug solution may be added into the culture wells within 2 s. The fluorescence recording result within the first 30 seconds was used as the baseline value. The FLIPR robot arm was programmed to automatically add bile acids and derivatives thereof into the cell sample culture wells at the 31st second. 1% of DMSO solvent was used as the blank control.
The results of FLIPR calcium imaging experiment of the bile acids and derivatives thereof are shown in FIG. 1, wherein the horizontal coordinate represents the time, and the vertical coordinate represents the relative fluorescence intensity.

[2] = molecular target: T2, human GPR39 receptors on human GPR39-2 cell lines (Homo sapiens, UniProt O43194); assay: FLIPR calcium imaging on human GPR39-2 cell line stably expressing human GPR39; settings: for intracellular calcium signal response of human GPR39-2: FIG. 9; for EC50: human GPR39-2 cells
T2 construct: P2A-mCherry (C)
T2 sequence (O43194 1-453): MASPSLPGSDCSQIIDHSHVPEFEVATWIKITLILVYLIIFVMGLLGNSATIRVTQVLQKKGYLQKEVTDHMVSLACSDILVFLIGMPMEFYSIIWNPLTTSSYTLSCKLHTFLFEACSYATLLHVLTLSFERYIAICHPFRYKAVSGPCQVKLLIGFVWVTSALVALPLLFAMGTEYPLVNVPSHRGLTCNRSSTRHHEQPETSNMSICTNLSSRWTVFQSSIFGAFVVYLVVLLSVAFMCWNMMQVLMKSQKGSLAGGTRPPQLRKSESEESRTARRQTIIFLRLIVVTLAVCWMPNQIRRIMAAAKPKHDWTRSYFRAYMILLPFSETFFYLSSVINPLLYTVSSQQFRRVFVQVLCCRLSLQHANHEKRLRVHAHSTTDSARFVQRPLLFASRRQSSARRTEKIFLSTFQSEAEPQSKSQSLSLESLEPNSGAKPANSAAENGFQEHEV
From the text: The human GPR39 cDNA vector was purchased from WZ Biosciences Inc., Shandong. It was cloned onto a lentiviral vector PLVXK-hGPR39-P2A-mCherry (FIG. 10) through PCR amplification using primers hGPR39-F (which sequence was shown as set forth in SEQshown as set forth in SEQ ID NO: 15) and hGPR39-R (which sequence was shown as set forth in SEQ shown as set forth in SEQ ID NO: 16), in which the sequence of the target gene human GPR39 cDNA was shown as set forth in SEQ shown as set forth in SEQ ID NO: 14. A cell line human GPR39-2 stably expressing human GPR39 gene was constructed according to the method of Example 1.

[3] = Bile acid + 4 μM zinc ions EC50, m39-20 cells, 4 μM zinc ions
[4] = m39-20 cells, no zinc ions, read-out: Only bile acid EC50

activation of GPR39 receptors in the presence of zinc ions ([1]; m39-20 cells, 4 μM zinc ions)	SMILES	EC50 [1, 3] [µM]	Bile acid + 4 μM zinc ions Efficacy ([1]; m39-20 cells, 4 μM zinc ions) [%]	Only bile acid Efficacy ([1]; m39-20 cells, no zinc ions) [%]	EC50 [1, 4] [µM]	calcium signals on HEK293T cells not expressing GPR39 (HEK293T cells)	intracellular calcium signals in m39-20 cell lines [1]	intracellular calcium signaling response in m39-20 cells [1]	change of activation efficacy after the addition of zinc ions ([1]; m39-20 cells)	activation capacity on GPR39 receptors among the bile acids ([1]; m39-20 cells)	intracellular calcium signal response of human GPR39-2 [2]	EC50 ([2]; no added zinc ions, read-out: EC50 Only agonist) [µM]	EC50 ([2]; read-out: EC50 Agonist + 4 μM zinc ions, 4 μM zinc ions) [µM]
capable of activating GPR39 receptors	C[C@H](CCC(=O)O)[C@H]1CC[C@H]2[C@@H]3[C@H](O)C[C@@H]4C[C@H](O)CC[C@]4(C)[C@H]3CC[C@]12C [CDCA, Chenodeoxycholic acid]	75.1 ± 7.6	85 ± 5.2	0	> 200	may induce observable calcium signals	–	–	–	–	–	–	–
capable of activating GPR39 receptors	C[C@H](CCC(=O)O)[C@H]1CC[C@H]2[C@@H]3CC[C@@H]4C[C@H](O)CC[C@]4(C)[C@H]3C[C@H](O)[C@]12C [DCA, Deoxycholic acid]	58.4 ± 10	93.1 ± 1.4	0	> 200	may induce observable calcium signals	–	–	–	–	–	–	–
–	C[C@H](CCC(=O)NCC(=O)O)[C@H]1CC[C@H]2[C@@H]3CC[C@@H]4C[C@H](OS(=O)(=O)O)CC[C@]4(C)[C@H]3CC[C@]12C [GLCAS]	8 ± 1.8	110.8 ± 4.1	98.8 ± 4.6	47.9 ± 9.4	–	varying extents of intracellular calcium signals	strong intracellular calcium signaling response	increases slightly	strongest activation capacity	capable of inducing intracellular calcium signal response	–	–
–	C[C@H](CCC(=O)NCCS(=O)(=O)[O-])[C@H]1CC[C@H]2[C@@H]3CC[C@@H]4C[C@H](OS(=O)(=O)[O-])CC[C@]4(C)[C@H]3CC[C@]12C.[Na+].[Na+] [TLCAS]	–	–	–	–	–	varying extents of intracellular calcium signals	strong intracellular calcium signaling response	increases slightly	strongest activation capacity	capable of inducing intracellular calcium signal response	69.4 ± 5	9.6 ± 6.3
–	C[C@H](CCC(=O)O)[C@H]1CC[C@H]2[C@@H]3[C@@H](O)C[C@@H]4C[C@H](OS(=O)(=O)O)CC[C@]4(C)[C@H]3CC[C@]12C [UDCAS]	68.6 ± 16.3	84.7 ± 2.4	0	> 200	–	varying extents of intracellular calcium signals	–	obviously improved	–	–	–	–
